Source: ChEMBL document CHEMBL1201862, “PubChem BioAssay data set” (2004)
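Exposure lasted 48 hours, with cells grown in 96-well plates and compounds tested at five concentrations. Here, GI50 denotes the concentration required for 50% inhibition of growth.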 The source made the active and inactive calls. Cut-off read from the data, not from the text of the source: active = GI50 up to about 1.1 µM and inactive = higher.

Legend:
Assay in all cases: growth of human tumour cells (NCI), 48 h
[1] = system: NCI/ADR-RES
[2] = system: SK-MEL-5
[3] = system: PC-3
[4] = system: UACC-62
[5] = system: SNB-75
[6] = system: HT-29
[7] = system: MCF7
[8] = system: SK-OV-3
[9] = system: LOX IMVI
[10] = system: HL-60
[11] = system: MDA-N
[12] = system: NCI-H226
[13] = system: CAKI-1
[14] = system: SK-MEL-28
[15] = system: M14
[16] = system: ACHN
[17] = system: HCC 2998
[18] = system: HOP-92
[19] = system: SF-295

Measured: GI50

CN(C)CCNc1ncnc2nc(-c3ccccc3)c(-c3ccccc3)nc12
inactive: [1] > 100 µM | [2] > 100 µM | [3] > 100 µM | [4] > 100 µM | [5] 87.7 µM | [6] > 100 µM | [7] 57.5 µM | [8] > 100 µM | [9] > 100 µM | [10] > 100 µM | [11] > 100 µM | [12] > 100 µM | [13] > 100 µM | [14] > 100 µM | [15] > 100 µM

N#Cc1c(-c2ccc([N+](=O)[O-])cc2)c(C#N)c(=O)n(NS(=O)(=O)c2ccccc2)c1S
inactive: [1] 50.6 µM | [2] 10.8 µM | [3] 28.8 µM | [4] 20.7 µM | [5] 39.6 µM | [16] 37.8 µM | [6] 36.3 µM | [7] 31.4 µM | [8] 79.8 µM | [17] 40.6 µM | [9] 18.4 µM | [18] > 100 µM | [19] 44.8 µM | [12] 65 µM | [13] 66.4 µM | [14] 61.9 µM | [15] 37 µM

FC(F)(F)c1ccccc1/C=N/C12CC3CC(CC(C3)C1)C2
inactive: [2] 6.03 µM | [5] 86.1 µM | [16] > 100 µM | [6] > 100 µM | [8] > 100 µM | [17] > 100 µM | [9] > 100 µM | [10] > 100 µM | [19] > 100 µM | [12] > 100 µM | [13] > 100 µM | [14] > 100 µM | [15] > 100 µM

COc1ccc(N[S+]([O-])c2ccc(Cl)cc2)cc1 (stereo not drawn)
inactive: [1] 38.8 µM | [2] 28.4 µM | [4] 8.43 µM | [16] 91 µM | [6] 37.7 µM | [7] 32.6 µM | [17] 30.7 µM | [9] 31 µM | [10] 38.5 µM | [11] 28.3 µM | [19] 45.8 µM | [12] 19.5 µM | [14] > 100 µM | [15] 94 µM

S=C1N=C(Cl)/C(=C\c2ccco2)N1
inactive: [1] > 100 µM | [2] > 100 µM | [3] > 100 µM | [4] > 100 µM | [5] > 74.6 µM | [16] > 100 µM | [6] > 100 µM | [7] > 100 µM | [8] > 100 µM | [9] > 100 µM | [10] > 70.5 µM | [18] > 100 µM | [19] > 100 µM | [12] > 80.5 µM | [13] > 100 µM | [14] > 100 µM | [15] > 100 µM

O=C1CC(c2ccccc2)n2cccc21 (stereo not drawn)
inactive: [1] > 100 µM | [2] > 100 µM | [3] > 100 µM | [4] > 100 µM | [5] > 100 µM | [16] > 100 µM | [6] > 100 µM | [7] > 100 µM | [8] > 100 µM | [17] > 100 µM | [9] > 100 µM | [10] 65.6 µM | [18] > 100 µM | [19] > 100 µM | [12] > 100 µM | [13] > 100 µM | [14] > 100 µM | [15] > 100 µM

O=C(Nc1nnc(-c2ccccc2)o1)C(SC(=S)N1CCOCC1)c1ccccc1 (stereo not drawn)
inactive: [1] 14.6 µM | [2] 15.7 µM | [3] 27 µM | [5] 47.9 µM | [16] 20.9 µM | [6] 26.4 µM | [7] 27.1 µM | [8] 42.9 µM | [9] 16.3 µM | [10] 12.3 µM | [11] 26.3 µM | [19] 21.8 µM | [12] 34.4 µM | [13] 30.2 µM | [14] 46.9 µM | [15] 20.4 µM

CN(C)c1ccc(/N=N\c2cccc3ccoc23)cc1
inactive: [1] 43.1 µM | [2] 43.4 µM | [3] 59.6 µM | [4] > 100 µM | [5] > 84.3 µM | [16] > 100 µM | [6] 29.5 µM | [8] > 100 µM | [17] 60.8 µM | [9] > 100 µM | [10] 23.8 µM | [18] 70.5 µM | [11] > 94.4 µM | [19] 98.6 µM | [12] > 74.6 µM | [13] > 62.4 µM | [14] > 100 µM | [15] > 40.8 µM

CCOC(=O)CC(=O)N(c1ccc(OC)cc1)C(C(=O)OC)c1ccccc1 (stereo not drawn)
inactive: [1] > 100 µM | [2] > 100 µM | [3] > 100 µM | [4] > 100 µM | [5] 61 µM | [16] > 100 µM | [6] > 100 µM | [7] > 100 µM | [9] > 100 µM | [11] > 100 µM | [19] > 100 µM | [13] > 100 µM | [14] > 100 µM | [15] > 100 µM

Cc1ccc(S(=O)(=O)OC2CN3CCC2CC3)cc1 (stereo not drawn)
inactive: [1] > 100 µM | [2] > 100 µM | [3] > 100 µM | [4] > 100 µM | [5] > 100 µM | [16] > 100 µM | [6] > 100 µM | [7] > 100 µM | [8] > 100 µM | [9] > 100 µM | [10] 22.6 µM | [18] > 100 µM | [19] > 100 µM | [12] > 100 µM | [13] > 100 µM | [14] > 100 µM | [15] > 100 µM

CNC(=O)c1nn[nH]c1Sc1c([N+](=O)[O-])ncn1C
inactive: [1] > 100 µM | [2] > 100 µM | [3] > 100 µM | [4] > 100 µM | [16] > 100 µM | [6] > 100 µM | [7] > 100 µM | [8] > 100 µM | [17] > 100 µM | [9] > 100 µM | [18] > 100 µM | [19] > 100 µM | [13] > 100 µM | [14] > 100 µM | [15] > 100 µM

COc1ccc(N[S+]([O-])CCCc2ccccc2)cc1 (stereo not drawn)
inactive: [1] 58.1 µM | [2] 44.8 µM | [4] 44.9 µM | [16] > 100 µM | [6] > 100 µM | [7] 81.1 µM | [9] > 100 µM | [10] 67.3 µM | [11] > 100 µM | [19] > 100 µM | [12] > 100 µM | [14] > 100 µM

CC(C)(C)C1=NN=C2c3ccccc3C(=O)C21 (stereo not drawn)
inactive: [1] 83.9 µM | [2] 23 µM | [3] 35.6 µM | [4] 27.4 µM | [5] 79.6 µM | [16] 43.1 µM | [6] 28.2 µM | [7] 51.1 µM | [17] 4.6 µM | [9] 41.1 µM | [10] 34.3 µM | [18] 15.5 µM | [19] 39.1 µM | [12] 41.7 µM | [13] 26.4 µM | [14] 55.8 µM | [15] 76.6 µM
